Assay: mn = molality of the nth substance listed, in mol/kg
Details: 101 kPa, Liquid; for speed of sound: Pulse-echo method

O=C([O-])CC(O)(CC(=O)[O-])C(=O)O.[Na+].[Na+] [disodium hydrogen citrate] + O
mass density [kg/m3]
Details | 288.15 K | 293.15 K | 298.15 K | 303.15 K | 308.15 K
m1 = 0.0095 | 1000.55 | 999.632 | 998.455 | 997.044 | 995.414
m1 = 0.0114 | 1000.84 | 999.92 | 998.74 | 997.324 | 995.691
m1 = 0.0133 | 1001.13 | 1000.21 | 999.021 | 997.605 | 995.97
m1 = 0.015 | 1001.38 | 1000.46 | 999.268 | 997.849 | 996.213
m1 = 0.0172 | 1001.71 | 1000.78 | 999.588 | 998.164 | 996.524
m1 = 0.0187 | 1001.93 | 1000.99 | 999.8 | 998.374 | 996.735
m1 = 0.021 | 1002.28 | 1001.35 | 1000.15 | 998.719 | 997.077
m1 = 0.0229 | 1002.56 | 1001.62 | 1000.42 | 998.99 | 997.344
m1 = 0.0267 | 1003.12 | 1002.18 | 1000.97 | 999.532 | 997.881
m1 = 0.0307 | 1003.73 | 1002.77 | 1001.56 | 1000.12 | 998.461
m1 = 0.0344 | 1004.28 | 1003.32 | 1002.1 | 1000.65 | 998.99
m1 = 0.0374 | 1004.73 | 1003.76 | 1002.54 | 1001.09 | 999.421
m1 = 0.057 | 1007.64 | 1006.63 | 1005.38 | 1003.9 | 1002.21
m1 = 0.0771 | 1010.58 | 1009.54 | 1008.25 | 1006.75 | 1005.03
m1 = 0.0953 | 1013.22 | 1012.15 | 1010.84 | 1009.31 | 1007.58
m1 = 0.1157 | 1016.16 | 1015.05 | 1013.71 | 1012.16 | 1010.4
m1 = 0.1332 | 1018.67 | 1017.54 | 1016.17 | 1014.59 | 1012.82
m1 = 0.1542 | 1021.64 | 1020.48 | 1019.09 | 1017.48 | 1015.68
m1 = 0.1773 | 1024.9 | 1023.7 | 1022.26 | 1020.63 | 1018.81
m1 = 0.1964 | 1027.57 | 1026.33 | 1024.88 | 1023.22 | 1021.38
m1 = 0.2144 | 1030.07 | 1028.81 | 1027.33 | 1025.66 | 1023.8
m1 = 0.2229 | 1031.25 | 1029.97 | 1028.48 | 1026.8 | 1024.93
m1 = 0.2509 | 1035.09 | 1033.78 | 1032.26 | 1030.54 | 1028.64
m1 = 0.283 | 1039.47 | 1038.11 | 1036.55 | 1034.8 | 1032.87
m1 = 0.2965 | 1041.3 | 1039.92 | 1038.34 | 1036.58 | 1034.63
m1 = 0.3375 | 1046.82 | 1045.39 | 1043.77 | 1041.96 | 1039.98

O=C([O-])CC(O)(CC(=O)O)C(=O)O.[Na+] [sodium dihydrogen citrate] + O
Details | mass density, 288.15 K [kg/m3] | mass density, 293.15 K [kg/m3] | mass density, 298.15 K [kg/m3] | mass density, 303.15 K [kg/m3] | mass density, 308.15 K [kg/m3] | speed of sound, 288.15 K [m/s] | speed of sound, 293.15 K [m/s] | speed of sound, 298.15 K [m/s] | speed of sound, 303.15 K [m/s] | speed of sound, 308.15 K [m/s]
m1 = 0.0093 | 1000.17 | 999.26 | 998.086 | 996.675 | 995.048 | 1467.7 | 1483.7 | 1497.9 | 1510.2 | 1520.8
m1 = 0.0117 | 1000.44 | 999.519 | 998.341 | 996.93 | 995.3 | 1467.9 | 1483.9 | 1498.1 | 1510.4 | 1521
m1 = 0.0125 | 1000.53 | 999.616 | 998.436 | 997.022 | 995.39 | 1468 | 1484 | 1498.2 | 1510.5 | 1521.1
m1 = 0.0138 | 1000.68 | 999.756 | 998.576 | 997.161 | 995.527 | 1468.1 | 1484.1 | 1498.3 | 1510.6 | 1521.2
m1 = 0.0155 | 1000.87 | 999.956 | 998.772 | 997.353 | 995.72 | 1468.3 | 1484.3 | 1498.5 | 1510.8 | 1521.4
m1 = 0.0163 | 1000.97 | 1000.04 | 998.856 | 997.436 | 995.802 | 1468.4 | 1484.4 | 1498.5 | 1510.8 | 1521.4
m1 = 0.0187 | 1001.24 | 1000.31 | 999.125 | 997.702 | 996.063 | 1468.7 | 1484.7 | 1498.8 | 1511 | 1521.6
m1 = 0.0202 | 1001.42 | 1000.49 | 999.296 | 997.872 | 996.232 | 1468.9 | 1484.8 | 1498.9 | 1511.2 | 1521.8
m1 = 0.0209 | 1001.49 | 1000.56 | 999.364 | 997.94 | 996.299 | 1468.9 | 1484.9 | 1499 | 1511.3 | 1521.8
m1 = 0.024 | 1001.85 | 1000.91 | 999.72 | 998.29 | 996.648 | 1469.3 | 1485.2 | 1499.3 | 1511.5 | 1522.1
m1 = 0.0279 | 1002.29 | 1001.35 | 1000.15 | 998.715 | 997.067 | 1469.8 | 1485.6 | 1499.7 | 1511.9 | 1522.4
m1 = 0.0327 | 1002.84 | 1001.89 | 1000.68 | 999.246 | 997.594 | 1470.2 | 1486 | 1500.1 | 1512.3 | 1522.8
m1 = 0.0376 | 1003.39 | 1002.44 | 1001.22 | 999.776 | 998.119 | 1470.8 | 1486.6 | 1500.6 | 1512.7 | 1523.2
m1 = 0.0409 | 1003.78 | 1002.82 | 1001.6 | 1000.15 | 998.486 | 1471.1 | 1486.9 | 1500.9 | 1513.1 | 1523.5
m1 = 0.047 | 1004.47 | 1003.49 | 1002.27 | 1000.81 | 999.141 | 1471.8 | 1487.6 | 1501.5 | 1513.6 | 1524
m1 = 0.0681 | 1006.85 | 1005.84 | 1004.59 | 1003.11 | 1001.41 | 1474 | 1489.7 | 1503.5 | 1515.5 | 1525.8
m1 = 0.0937 | 1009.71 | 1008.67 | 1007.38 | 1005.86 | 1004.15 | 1476.8 | 1492.3 | 1505.9 | 1517.8 | 1527.9
m1 = 0.1194 | 1012.55 | 1011.47 | 1010.14 | 1008.6 | 1006.86 | 1479.5 | 1494.8 | 1508.3 | 1520 | 1530.1
m1 = 0.144 | 1015.25 | 1014.13 | 1012.77 | 1011.2 | 1009.44 | 1482 | 1497.2 | 1510.5 | 1522.1 | 1532
m1 = 0.1678 | 1017.83 | 1016.68 | 1015.29 | 1013.7 | 1011.91 | 1484.6 | 1499.6 | 1512.7 | 1524.2 | 1534
m1 = 0.1911 | 1020.35 | 1019.17 | 1017.76 | 1016.13 | 1014.32 | 1487 | 1501.8 | 1514.9 | 1526.2 | 1535.8
m1 = 0.2165 | 1023.07 | 1021.86 | 1020.42 | 1018.77 | 1016.93 | 1489.5 | 1504.1 | 1517 | 1528.2 | 1537.8
m1 = 0.2412 | 1025.7 | 1024.45 | 1022.98 | 1021.31 | 1019.45 | 1492 | 1506.5 | 1519.3 | 1530.3 | 1539.8
m1 = 0.2934 | 1031.2 | 1029.89 | 1028.36 | 1026.63 | 1024.72 | 1497.3 | 1511.5 | 1524 | 1534.7 | 1543.9
m1 = 0.3205 | 1034.04 | 1032.69 | 1031.13 | 1029.38 | 1027.44 | 1500 | 1514 | 1526.3 | 1537 | 1546
m1 = 0.3395 | 1036.01 | 1034.64 | 1033.06 | 1031.28 | 1029.33 | 1501.8 | 1515.8 | 1528 | 1538.5 | 1547.5
m1 = 0.3728 | 1039.43 | 1038.03 | 1036.41 | 1034.6 | 1032.62 | 1505.1 | 1518.8 | 1530.9 | 1541.2 | 1550
m1 = 0.3936 | 1041.57 | 1040.14 | 1038.5 | 1036.67 | 1034.67 | 1507.1 | 1520.7 | 1532.7 | 1542.9 | 1551.6
